For this experiment, the system named is algae sample. Put plainly: preservation of an algae sample in a preserving solution. Also noted: species or system algae (e.g., sugar kelp, ribbon kelp, bull kelp, brown alga). As to conditions: for preservation of the algae by the preserving solution: for the target preserving duration; for critical preservation solution concentration: temperature excursions between 0° F. and 140° F., wet mass basis relative to algae mass. From the text:
The critical preservation solution concentration can depend on the amount of time the algae sample is to be preserved for, a preservation temperature, an algae species (or other taxonomical rank such as phylum, class, order, family, genus, intermediate ranks therebetween associated with the algae), humidity, moisture content, wet mass content of the algae sample (e.g., composition of the wet mass of the algae sample), dry mass content of the algae sample (e.g., composition of the dry mass of the algae sample), and/or other suitable. […] However, other critical values can be determined and/or arrived at (e.g., by controlling temperature excursions particularly high temperature range, for different types of algae, using a mixture of preserving agents to reduce the concentration of any single preserving agent, based on the amount of time to preserve the algae, etc.).
Preserving the received algae sample S300 preferably functions to extend a lifetime of the algae sample without significant degradation of the algae sample and/or products thereof or derived therefrom. S300 can preserve an as received algae sample (e.g., from S100, fresh harvested algae sample, etc.), a processed algae sample (e.g., from S200, an algae sample that was received after one or more processing steps such as in S200 or S400 has been performed, etc.), a previously preserved algae sample (e.g., preserved according to S300, preserved in a manner different from S300, dried algae sample, etc.), and/or any suitable algae sample.
The algae sample is typically not agitated (e.g., mixed) during (e.g., throughout) preservation (e.g., to simplify the preservation process). Alternatively stated, the algae sample is preferably mixed at most only once (e.g., at the beginning of S300 to homogenize the preserving solution and algae sample) and remains unmixed thereafter. However, the algae sample can be agitated during preservation (e.g., according to a schedule, at predetermined times, at a predetermined frequency, etc.).
The algae sample is typically preserved at approximately room temperature (e.g., an ambient temperature of an environment the algae sample is stored at). For instance, the algae sample can be preserved at a temperature between about 50° F. to 110° F. However, the algae sample can be stored at an elevated temperature (e.g., >110° F.), at a refrigeration temperature (e.g., 30-50° F.), freezing temperature (e.g., <about 30° F.), and/or at any suitable temperature. In some variants, the preserved algae sample can undergo temperature excursions as cold as about 0° F. and as high as 140° F. However, additionally or alternatively, the temperature can be controlled to within a target temperature range (e.g., a preservation temperature, a preservation temperature excursion range, etc.).
The algae sample is typically not fully sealed during preservation (e.g., evaporation of solvent, preservative, etc. can occur such as because the sample is loosely covered). […] For example, the algae sample can be preserved in a container where a lid is placed on the container to close the container but where the lid need not form a seal (e.g., is not a hermetic lid).

Take `CCO` [alcohol]: the “preservation duration before product degradation, mold growth, etc. was detected” value (5% alcohol solution, target about 1 year of preservation) is on record as “about 2 months”. The “preservation of the algae by the preserving solution” value (“preservation of the algae” below) (less than 8% alcohol (e.g., 1%, 3%, 5%)) is given as “did not preserve the algae”. Moreover, the “critical preservation solution concentration” value (preserve for 2 months or less) is given as “at least 5 wt %” and the “critical preservation solution concentration” value (preserve for 12 months or less) is reported as “at least 8 wt %”.
As for `O=C([O-])[O-].[Na+].[Na+]` [sodium carbonate], the “preservation of the algae” value (less than 9% carbonate (e.g., 5%)) is “did not preserve the algae”. In addition, the “critical preservation solution concentration” value (preserve for 2 months or less) is on record as no less than 9 wt %.
Consider benzoate, for which the “preservation of the algae” value (less than 0.5% benzoate (e.g., 0.1%)) is listed as “did not preserve the algae”.

Values taken from patent US20240409878A1, “SYSTEM AND METHOD FOR PRESERVING ALGAE” (Macro Oceans Inc., priority 2023, published 2024).
